From patent US8067424B2, “Selective inhibitors for cyclin-dependent kinases” (Emory University, priority 2007, dated 2011)
Where two headings read alike, the source gives them in different places.

What was measured:
Format in all cases: biochemical
PDK1 = biological target: T1, PDK1 (Homo sapiens, UniProt O15530); assay: Kinase screen: PDK1 assay
T1 sequence (O15530 1-556): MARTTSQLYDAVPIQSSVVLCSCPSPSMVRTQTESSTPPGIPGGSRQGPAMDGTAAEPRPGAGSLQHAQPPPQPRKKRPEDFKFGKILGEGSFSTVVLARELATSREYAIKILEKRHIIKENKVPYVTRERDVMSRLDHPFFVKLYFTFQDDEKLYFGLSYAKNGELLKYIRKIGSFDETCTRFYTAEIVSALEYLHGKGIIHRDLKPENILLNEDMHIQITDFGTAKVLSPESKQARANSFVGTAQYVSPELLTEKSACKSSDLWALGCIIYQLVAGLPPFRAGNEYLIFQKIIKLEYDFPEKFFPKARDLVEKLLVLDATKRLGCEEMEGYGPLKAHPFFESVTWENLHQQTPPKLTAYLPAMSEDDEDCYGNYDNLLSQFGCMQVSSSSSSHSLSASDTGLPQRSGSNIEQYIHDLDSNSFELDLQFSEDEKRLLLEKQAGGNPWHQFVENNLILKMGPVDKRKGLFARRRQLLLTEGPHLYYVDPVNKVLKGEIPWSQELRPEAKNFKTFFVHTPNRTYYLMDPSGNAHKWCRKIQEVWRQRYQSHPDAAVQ
Procedure: (§1) Generally, the same procedure was used for all assays. Since the total assay volume was 25.5 microliters, 0.5 microliters of inhibitors at 51× assay concentration were added to the plates before any other addition.
(§2) The basic procedure was to add 0.5 microliters inhibitor/control in DMSO to plate. Fifteen microliters of enzyme/substrate/buffer mix were added and incubated for 5 min. Ten microliters MgATP at the relevant concentration were added and incubated for 30 min. The assay was stopped by adding 5 microliters of 3% orthophosphoric acid. The assay was transferred to a p81 filter plate and read in a scintillation counter of 30 sec/well. Note that this assay procedure was not followed for MKK1, which instead involved a two-step assay, and PKC alpha, which required the addition of lipid vesicles.
(50-1000 cpm/pmole) and incubated for 30 min at room temperature Assays were stopped by addition of 5 μl of 0.5 M (3%) orthophosphoric acid and then harvested onto P81 Unifilter plates with a wash buffer of 50 mM orthophosphoric acid.

PKBα = PKBα (Homo sapiens, UniProt P31749, S473D); assay: Kinase screen: APH-PKBa-S473D assay
Chain of PKBα (P31749 118-480 S473D limits assumed, species assumed): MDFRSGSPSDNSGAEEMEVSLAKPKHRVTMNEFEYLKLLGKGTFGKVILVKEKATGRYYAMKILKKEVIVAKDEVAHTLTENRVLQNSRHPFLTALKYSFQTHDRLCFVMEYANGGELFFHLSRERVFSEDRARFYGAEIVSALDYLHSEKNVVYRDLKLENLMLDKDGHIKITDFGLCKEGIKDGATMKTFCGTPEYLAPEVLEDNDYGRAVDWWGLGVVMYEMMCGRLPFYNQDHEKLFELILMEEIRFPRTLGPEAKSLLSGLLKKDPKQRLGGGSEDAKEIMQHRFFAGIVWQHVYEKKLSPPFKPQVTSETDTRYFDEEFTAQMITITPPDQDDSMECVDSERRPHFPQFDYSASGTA
Procedure: as §1, §2
APH-PKBa-S473D assay: APH-PKBa-S473D (5-20 mU diluted in 50 mM Tris pH 7.5, 0.1 mM EGTA, 0.1% b-mercaptoethanol, 1 mg/ml BSA) was assayed against a modified Crosstide peptide […] (SEQ ID NO: 4) in a final volume of 25.5 μl containing 50 mM Tris pH 7.5, 0.05% b-mercaptoethanol, 30 μM substrate peptide, 10 mM magnesium acetate and 0.005 mM [33P-g-ATP] (50-1000 cpm/pmole) and incubated for 30 min at room temperature. Assays were stopped by addition of 5 μl of 0.5 M (3%) orthophosphoric acid and then harvested onto P81 Unifilter plates with a wash buffer of 50 mM orthophosphoric acid.

PKBβ = biological target: T2, PKBβ (Homo sapiens, UniProt P31751, S474D); assay: Kinase screen: ΔPH-PKBbeta (S474D) assay
T2 construct: ΔPH-PKBbeta (S474D) assay: ΔPH-PKBbeta-S474D (5-20 mU diluted)
T2 sequence (P31751 120-481 S474D limits assumed, species assumed): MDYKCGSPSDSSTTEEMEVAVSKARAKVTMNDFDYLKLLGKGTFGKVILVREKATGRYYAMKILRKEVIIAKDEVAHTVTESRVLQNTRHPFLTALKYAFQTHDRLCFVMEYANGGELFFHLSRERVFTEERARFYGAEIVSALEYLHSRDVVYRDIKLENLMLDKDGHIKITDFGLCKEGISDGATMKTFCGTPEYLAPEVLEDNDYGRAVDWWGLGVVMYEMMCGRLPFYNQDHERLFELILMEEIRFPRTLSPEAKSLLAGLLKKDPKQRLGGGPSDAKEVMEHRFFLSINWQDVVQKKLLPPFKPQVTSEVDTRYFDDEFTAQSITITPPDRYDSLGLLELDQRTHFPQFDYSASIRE
Procedure: as §1, §2
ΔPH-PKBbeta (S474D) assay: ΔPH-PKBbeta-S474D (5-20 mU diluted in 50 mM Tris pH 7.5, 0.1 mM EGTA, 0.1% b-mercaptoethanol, 1 mg/ml BSA) was assayed against a modified Crosstide peptide ([…]) (SEQ ID NO: 4) in a final volume of 25.5 μl containing 50 mM Tris pH 7.5, 0.05% b-mercaptoethanol, 30 μM substrate peptide, 10 mM magnesium acetate and 0.05 mM [33P-g-ATP] (50-1000 cpm/pmole) and incubated for 30 min at room temperature. Assays were stopped by addition of 5 μl of 0.5 M (3%) orthophosphoric acid and then harvested onto P81 Unifilter plates with a wash buffer of 50 mM orthophosphoric acid.

AMPK = assay: Kinase screen: AMPK assay; settings: for mean activity remaining (as a percentage of the original activity), AMPK: 10 micromolar compound
Procedure: as §1, §2
AMPK assay: AMPK (5-20 mU diluted in 50 mM Hepes pH 7.5, 1 mM DTT, 0.02% Brij35) was assayed against SAMS substrate peptide ([…]) (SEQ ID NO: 11) in a final volume of 25.5 μl containing 50 mM Hepes pH 7.5, 1 mM DTT, 0.02% Brij35, 0.4 mM SAMS peptide, 0.196 mM AMP, 10 mM magnesium acetate and 0.05 mM [33P-g-ATP] (50-1000 cpm/pmole) and incubated for 30 min at room temperature. Assays were stopped by addition of 5 μl of 0.5 M (3%) orthophosphoric acid and then harvested onto P81 Unifilter plates with a wash buffer of 50 mM orthophosphoric acid.

IGF-1R = IGF-1R (Homo sapiens, UniProt P08069); assay: Kinase screen: IGF-1R assay; settings: 10 micromolar compound; for remaining activity at 10 µM: read-out: mean activity remaining (as a percentage of the original activity), IGF1-R
Chain of IGF-1R (P08069 31-1367, species assumed): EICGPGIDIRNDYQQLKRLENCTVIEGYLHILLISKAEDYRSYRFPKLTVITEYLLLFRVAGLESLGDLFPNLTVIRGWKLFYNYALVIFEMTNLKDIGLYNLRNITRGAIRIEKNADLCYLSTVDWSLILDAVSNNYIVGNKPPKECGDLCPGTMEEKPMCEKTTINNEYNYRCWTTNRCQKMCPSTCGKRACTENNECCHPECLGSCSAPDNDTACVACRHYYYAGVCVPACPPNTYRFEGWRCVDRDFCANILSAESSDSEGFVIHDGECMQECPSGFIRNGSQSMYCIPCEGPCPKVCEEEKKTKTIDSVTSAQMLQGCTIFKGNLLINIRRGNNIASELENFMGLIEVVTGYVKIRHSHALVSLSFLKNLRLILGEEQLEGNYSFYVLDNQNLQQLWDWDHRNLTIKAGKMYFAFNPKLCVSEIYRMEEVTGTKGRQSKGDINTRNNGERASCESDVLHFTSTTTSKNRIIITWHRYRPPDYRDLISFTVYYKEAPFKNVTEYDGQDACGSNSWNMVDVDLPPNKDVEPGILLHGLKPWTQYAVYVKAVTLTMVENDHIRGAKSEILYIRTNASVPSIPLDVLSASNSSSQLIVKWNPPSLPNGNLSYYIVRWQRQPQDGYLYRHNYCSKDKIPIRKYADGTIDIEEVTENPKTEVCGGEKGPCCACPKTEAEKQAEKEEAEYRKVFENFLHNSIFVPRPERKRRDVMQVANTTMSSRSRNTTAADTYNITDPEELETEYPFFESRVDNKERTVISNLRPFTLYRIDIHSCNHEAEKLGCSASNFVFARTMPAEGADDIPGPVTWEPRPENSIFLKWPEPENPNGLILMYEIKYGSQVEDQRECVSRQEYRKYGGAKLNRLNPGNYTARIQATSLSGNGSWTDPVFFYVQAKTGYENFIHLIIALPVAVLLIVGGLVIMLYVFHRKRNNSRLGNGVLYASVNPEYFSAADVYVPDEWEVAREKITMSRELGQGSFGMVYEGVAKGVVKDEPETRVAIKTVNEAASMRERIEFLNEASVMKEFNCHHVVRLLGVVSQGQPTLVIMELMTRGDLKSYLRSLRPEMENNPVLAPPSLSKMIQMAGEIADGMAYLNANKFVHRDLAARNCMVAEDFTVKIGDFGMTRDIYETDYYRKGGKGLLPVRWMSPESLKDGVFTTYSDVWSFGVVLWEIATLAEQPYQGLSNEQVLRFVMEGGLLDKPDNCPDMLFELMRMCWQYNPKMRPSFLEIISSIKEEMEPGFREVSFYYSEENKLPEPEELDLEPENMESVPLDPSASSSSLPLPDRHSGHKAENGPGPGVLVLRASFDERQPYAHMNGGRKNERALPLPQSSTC
Procedure: as §1, §2
IGF-1R assay: IGF-1R (5-20 mU diluted in 50 mM Tris pH 7.5, 0.1 mM EGTA, 1 mg/ml BSA) was assayed against a substrate peptide ([…]) (SEQ ID NO: in a final volume of 25.5 μl containing 50 mM Tris pH 7.5, 300 μM substrate peptide, 10 mM magnesium acetate and 0.005 mM [33P-g-ATP] (50-1000 cpm/pmole) and incubated for 30 min at room temperature. Assays were stopped by addition of 5 μl of 0.5 M (3%) orthophosphoric acid and then harvested onto P81 Unifilter plates with a wash buffer of 50 mM orthophosphoric acid.

[1] = 10 micromolar compound, read-out: mean activity remaining (as a percentage of the original activity), PDK1
[2] = 0.5 h, 10 micromolar compound, read-out: mean activity remaining (as a percentage of the original activity), PKBa
[3] = 0.5 h, 10 micromolar compound, read-out: mean activity remaining (as a percentage of the original activity), PKBb

Row | Structure (SMILES) | mean activity remaining (as a percentage of the original activity), PDK1 (PDK1; 10 micromolar compound) [%] | mean activity remaining (as a percentage of the original activity), PKBa (PKBα; 10 micromolar compound) [%] | mean activity remaining (as a percentage of the original activity), PKBb (PKBβ; 10 micromolar compound) [%] | mean activity remaining (as a percentage of the original activity), AMPK (AMPK) [%] | mean activity remaining (as a percentage of the original activity), IGF1-R (IGF-1R) [%] | remaining activity at 10 µM (PDK1; PDK1, 10 μM, read-out: Mean Remaining Enzyme Activity (%)) [%] | remaining activity at 10 µM (PKBα; PKBα, 10 μM, read-out: Mean Remaining Enzyme Activity (%)) [%] | remaining activity at 10 µM (PKBβ; PKBβ, 10 μM, read-out: Mean Remaining Enzyme Activity (%)) [%] | Mean Remaining Enzyme Activity (%) (AMPK; AMPK, 10 μM) | remaining activity at 10 µM (PDK1; [1]) [%] | remaining activity at 10 µM (PKBα; [2]) [%] | remaining activity at 10 µM (PKBβ; [3]) [%] | remaining activity at 10 µM (IGF-1R) [%]
1 | CC(C)c1cnn2c(NCc3ccccc3F)cc(NCCCCCN)nc12 [ICEC-0232] | 101 | 75 | 76 | 75 | 17 |  |  |  |  |  |  |  | 
2 | CC(C)c1cnn2c(NCc3ccccc3)cc(NCCCCCCCN)nc12 [BS-181] |  |  |  |  |  | 80 | 82 | 81 | 122 |  |  |  | 
3 | CC[C@H](CO)Nc1cc(NCc2ccccc2)n2ncc(C(C)C)c2n1 [ICEC0067] |  |  |  | 84 |  |  |  |  |  | 87 | 109 | 102 | 63
4 | C=C[C@H](CO)Nc1cc(NCc2ccccc2)n2ncc(C(C)C)c2n1 [ICEC0065] |  |  |  | 85 |  |  |  |  |  | 78 | 116 | 109 | 63
5 | CC(C)c1cnn2c(NCc3ccccc3)cc(N[C@@H](CO)[C@H](O)CO)nc12 [ICEC0318, (3S)-3-(7-(Benzylamino)-3-isopropylpyrazolo[1,5-a]pyrimidin-5-ylamino)butane-1,2,4-triol] |  |  |  | 88 |  |  |  |  |  | 84 | 103 | 105 | 67
